In US8871777B2, “Phenylpyrimidone compounds, the pharmaceutical compositions, preparation methods and uses thereof” (Topharman Shanghai Co., Ltd., priority 2008, dated 2014):

Key:
[1] = biological target: T1, human blood platelet PDE5 (Homo sapiens, UniProt O76074); assay: PDE5 enzyme inhibition activity test (scintillation proximity); type: biochemical
T1 construct: obtained by suitably treating various tissues and separating the enzyme with FPLC; from tissue; host or cells: human blood platelets
Experimental: (§1) More specifically, PDE5 and PDE3 were obtained from human blood platelet, and PDE6 was separated from bovine retina. Upon enzyme was separated out, the enzyme inhibition activity test would be carried out immediately. The said enzyme inhibition activity test was performed by directly detecting the scintillation proximity of AMP/GMP using TRKQ7100 and TRKQ7090 kits, which was generally as follows. In the presence of different concentrations of inhibitor and a small amount of substrate, 10 μl of buffer (50 mM Tris/HCl PH 7.5, 8.3 mM MgCl2, 1.7 mM EGTA) was added, and then water was added to a final volume of 100 μl. The reaction was initiated with a fixed amount of enzyme, incubated at 30° C. for 30 min, and then quenched with 50 μl of yttrium silicate beads comprising zinc sulphate. After shaken for 20 min, the reaction mixture was put in dark and settled for 30 min, and then readed on a BECKMAN LS6500 MULTI-PURPOSE SCINTILLATION COUNTER.

[2] = biological target: T2, PDE6 in bovine retina (Bos taurus, UniProt P11541+P23439); assay: PDE6 enzyme inhibition activity test (scintillation proximity); type: biochemical; conditions: for IC50: PDE6 separated from bovine retina, read-out: PDE6 IC50; for PDE6 IC50/PDE5 IC50: selectivity, ratio of IC50 PDE6/IC50 PDE5
T2 construct: obtained by suitably treating various tissues and separating the enzyme with FPLC; from tissue; host or cells: bovine retina
T2 sequence (P11541 2-856 limits assumed): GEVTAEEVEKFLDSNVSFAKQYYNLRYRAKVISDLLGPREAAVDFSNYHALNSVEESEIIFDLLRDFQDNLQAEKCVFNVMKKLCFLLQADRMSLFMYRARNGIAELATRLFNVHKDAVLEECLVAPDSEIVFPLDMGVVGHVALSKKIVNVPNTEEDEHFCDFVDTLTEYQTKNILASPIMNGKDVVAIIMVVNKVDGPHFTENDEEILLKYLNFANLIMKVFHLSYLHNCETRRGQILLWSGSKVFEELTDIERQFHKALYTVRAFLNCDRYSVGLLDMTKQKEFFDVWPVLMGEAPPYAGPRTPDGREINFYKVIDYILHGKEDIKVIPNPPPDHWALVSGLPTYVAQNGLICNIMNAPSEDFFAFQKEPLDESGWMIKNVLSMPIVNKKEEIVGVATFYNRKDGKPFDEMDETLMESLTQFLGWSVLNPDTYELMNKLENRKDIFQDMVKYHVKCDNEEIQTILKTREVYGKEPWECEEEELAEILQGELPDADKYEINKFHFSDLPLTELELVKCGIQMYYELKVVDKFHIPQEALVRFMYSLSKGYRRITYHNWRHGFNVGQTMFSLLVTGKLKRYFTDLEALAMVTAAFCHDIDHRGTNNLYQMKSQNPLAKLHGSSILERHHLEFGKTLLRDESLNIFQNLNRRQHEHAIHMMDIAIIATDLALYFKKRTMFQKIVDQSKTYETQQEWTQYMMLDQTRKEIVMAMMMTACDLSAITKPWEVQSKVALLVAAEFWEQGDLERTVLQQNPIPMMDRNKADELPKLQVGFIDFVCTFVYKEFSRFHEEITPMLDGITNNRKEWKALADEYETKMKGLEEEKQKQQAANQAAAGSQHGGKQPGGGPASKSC
T2 sequence (P23439 2-850 limits assumed): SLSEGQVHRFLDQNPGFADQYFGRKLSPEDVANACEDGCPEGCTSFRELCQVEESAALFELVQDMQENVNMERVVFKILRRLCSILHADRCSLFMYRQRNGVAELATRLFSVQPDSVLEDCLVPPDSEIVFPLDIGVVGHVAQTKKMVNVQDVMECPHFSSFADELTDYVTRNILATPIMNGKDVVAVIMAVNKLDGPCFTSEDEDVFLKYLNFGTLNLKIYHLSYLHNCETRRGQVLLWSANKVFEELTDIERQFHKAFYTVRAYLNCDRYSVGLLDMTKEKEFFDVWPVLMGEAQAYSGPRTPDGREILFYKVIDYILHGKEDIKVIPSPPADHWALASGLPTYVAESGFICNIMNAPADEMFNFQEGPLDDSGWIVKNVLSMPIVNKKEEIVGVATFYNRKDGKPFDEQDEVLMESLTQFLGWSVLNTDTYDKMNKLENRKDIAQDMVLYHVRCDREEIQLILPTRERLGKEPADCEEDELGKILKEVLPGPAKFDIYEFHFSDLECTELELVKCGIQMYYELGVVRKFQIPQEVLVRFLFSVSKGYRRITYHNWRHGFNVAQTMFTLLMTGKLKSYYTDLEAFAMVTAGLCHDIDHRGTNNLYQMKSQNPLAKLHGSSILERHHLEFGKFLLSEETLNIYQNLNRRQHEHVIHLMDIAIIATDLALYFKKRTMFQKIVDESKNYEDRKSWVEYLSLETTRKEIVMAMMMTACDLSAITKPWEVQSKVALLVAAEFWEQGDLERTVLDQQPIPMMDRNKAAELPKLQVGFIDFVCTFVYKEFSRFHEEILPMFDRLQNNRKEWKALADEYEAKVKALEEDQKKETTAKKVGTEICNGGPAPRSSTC
Experimental: as §1

Row | SMILES | IC50 ([1]; PDE5 table) [nM] | IC50 ([1]; as repeated in the PDE6 table) [nM] | IC50 [2] [nM] | PDE6 IC50/PDE5 IC50 [2]
1 | CCCOc1ccc(C(=O)NC(C)CO)cc1-c1nc(CC)c(CC)c(=O)[nH]1 (centres unmarked) [Example 166, 3-(4,5-diethyl-1,6-dihydro-6-oxopyrimidin-2-yl)-N-(1-hydroxyprop-2-yl)-4-n-propoxybenzamide] | 0.33 | 0.33 | 5.15 | 15.6
2 | CCCOc1ccc(S(=O)(=O)N2CCN(CCO)CC2)cc1-c1nc(CC)c(CC)c(=O)[nH]1 [Example 133, 5,6-diethyl-2-(2-n-propoxy-5-(4-hydroxyethyl-1-piperazinylsulfonyl)phenyl]pyrimid-4(3H)-one] | 1.13 | 1.31 | 20.9 | 15.9
3 | CCCOc1ccc(N/C(=N/CC)N(CC)CC)cc1-c1nc(CC)c(CC)c(=O)[nH]1 [Example 46, N-[3-(4,5-diethyl-1,6-dihydro-6-oxopyrimidin-2-yl)-4-n-propoxyphenyl]-N′,N″-triethylguanidine] | 1.09 | 1.09 | 642 | 589.0
4 | CCCOc1ccc(NC(=O)C(F)(F)F)cc1-c1nc(CC)c(CC)c(=O)[nH]1 [Example 98, N-(3-(4,5-diethyl-1,6-dihydro-6-oxopyrimidin-2-yl)-4-n-propoxyphenyl)-2,2,2-trifluoroacetamide] | 2.77 | 2.77 | 10.4 | 3.77
5 | CCCOc1ccc(S(=O)(=O)NC(CCCN)C(=O)O)cc1-c1nc(CC)c(CC)c(=O)[nH]1 (centres unmarked) [Example 119, 2-(N-(3-(4,5-diethyl-1,6-dihydro-6-oxopyrimidin-2-yl)-4-n-propoxyphenyl)sulfonyl)amino-5-aminovaleric acid] | 6.31 |  |  | 
6 | CCCOc1ccc(NC(=O)N2CCCC2)cc1-c1nc(CC)c(CC)c(=O)[nH]1 [Example 49] | 1.86 | 1.86 | 620 | 10.5
7 | CCCOc1ccc(C(=O)NCCS(=O)(=O)N(CC)CC)cc1-c1nc(CC)c(CC)c(=O)[nH]1 [Example 214, 3-(4,5-diethyl-1,6-dihydro-6-oxopyrimidin-2-yl)-N-(N,N-diethylaminosulfonylethyl)-4-n-propoxybenzamide] | 1.8 |  |  | 
8 | CCCOc1ccc(NC(=O)C(Cc2ccccc2)NC(C)=O)cc1-c1nc(CC)c(CC)c(=O)[nH]1 (centres unmarked) [Example 110, 2-acetamido-N-(3-(4,5-diethyl-1,6-dihydro-6-oxopyrimidin-2-yl)-4-n-propoxyphenyl)-3-phenylpropionamide] | 2.85 | 2.85 | 22.2 | 7.80
9 | CCCOc1ccc(C(=O)NCCS(=O)(=O)N2CCN(C)CC2)cc1-c1nc(CC)c(CC)c(=O)[nH]1 [Example 213, 3-(4,5-diethyl-1,6-dihydro-6-oxopyrimidin-2-yl)-N-(4-methyl-1-piperazinylsulfonylethyl)-4-n-propoxybenzamide] | 2.8 |  |  | 
10 | CCCOc1ccc(C(=O)NC2C(O)OC(CO)C(O)C2O)cc1-c1nc(CC)c(CC)c(=O)[nH]1 (centres unmarked) [Example 211] | 0.9 |  |  | 
11 | CCCOc1ccc(C(=O)NC(CCCNC(=N)N)C(=O)O)cc1-c1nc(CC)c(CC)c(=O)[nH]1 (centres unmarked) [Example 149, 2-(3-(4,5-diethyl-1,6-dihydro-6-oxopyrimidin-2-yl)-4-n-propoxybenzamido)-5-guanidylvaleric acid] | 1.8 |  |  | 
12 | CCCOc1ccc(C(=O)NC(C)C(N)=O)cc1-c1nc(CC)c(CC)c(=O)[nH]1 (centres unmarked) [Example 155, N-(1-aminoformylethyl)-3-(4,5-diethyl-1,6-dihydro-6-oxopyrimidin-2-yl)-4-n-propoxybenzamide] | 0.54 |  |  | 
13 | CCCOc1ccc(C2OC(CO)C(O)C(O)C2O)cc1-c1nc(CC)c(CC)c(=O)[nH]1 (centres unmarked) [Example 218, 5,6-Diethyl-2-(5-(tetrahydro-3,4,5-trihydroxy-6-(hydroxymethyl)-2H-pyran-2-yl)-2-n-propoxyphenyl)pyrimid-4(3H)-one] | 8.63 |  |  | 
14 | CCCOc1ccc(S(=O)(=O)NC(CCCNC(N)=O)C(=O)O)cc1-c1nc(CC)c(CC)c(=O)[nH]1 (centres unmarked) [Example 118, 2-(N-(3-(4,5-diethyl-1,6-dihydro-6-oxopyrimidin-2-y1)-4-n-propoxyphenyl)sulfonyl)amino-5-ureavaleric acid] | 0.76 |  |  | 
15 | CCCOc1ccc(C(=O)NC(CCCNC(N)=O)C(=O)O)cc1-c1nc(CC)c(CC)c(=O)[nH]1 (centres unmarked) [Example 209, 2-(3-(4,5-diethyl-1,6-dihydro-6-oxopyrimidin-2-yl)-4-n-propoxybenzamido)-5-ureavaleric acid] | 0.64 |  |  | 
16 | CCCOc1ccc(C(=O)NC(C)C(=O)OC)cc1-c1nc(CC)c(CC)c(=O)[nH]1 (centres unmarked) [Example 151, methyl 2-(3-(4,5-diethyl-1,6-dihydro-6-oxopyrimidin-2-yl)-4-n-propoxybenzamido)propionate] | 0.54 |  |  | 
17 | CCCOc1ccc(C(=O)NCCCS(=O)(=O)N2CCN(C)CC2)cc1-c1nc(CC)c(CC)c(=O)[nH]1 [Example 216, 3-(4,5-diethyl-1,6-dihydro-6-oxopyrimidin-2-yl)-N-(4-methyl-1-piperazinylsulfonylpropyl)-4-n-propoxybenzamide] | 0.83 |  |  | 
18 | CCCOc1ccc(C(=O)NCCS(N)(=O)=O)cc1-c1nc(CC)c(CC)c(=O)[nH]1 [Example 212, 2-(3-(4,5-diethyl-1,6-dihydro-6-oxopyrimidin-2-yl)-4-n-propoxybenzamido)ethylsulphonamide] | 0.79 |  |  | 
19 | CCCOc1ccc(-c2nc(CC)c(CC)c(=O)[nH]2)cc1-c1nc(CC)c(CC)c(=O)[nH]1 [Example 87, 2,2′-(4-n-Propoxy-1,3-phenylene)bis(5,6-diethylpyrimid-4(3H)-one)] | 3.29 |  |  | 
20 | CCCOc1ccc(S(=O)(=O)NC2C(O)OC(CO)C(O)C2O)cc1-c1nc(CC)c(CC)c(=O)[nH]1 (centres unmarked) [Example 208, 5,6-Diethyl-2-(2-n-propoxy-5-((tetrahydro-2,4,5-trihydroxy-6-(hydroxymethyl)-2H-pyran-3-ylamino)sulfonyl)phenyl]pyrimid-4(3H)-one] | 3.69 |  |  | 
21 | CCCOc1ccc(C(=O)NC(CCCN)C(=O)O)cc1-c1nc(CC)c(CC)c(=O)[nH]1 (centres unmarked) [Example 210, 2-(3-(4,5-diethyl-1,6-dihydro-6-oxopyrimidin-2-yl)-4-n-propoxybenzamido)-5-aminovaleric acid] | 6.23 |  |  | 
22 | CCCOc1ccc(C(=O)NCCCS(N)(=O)=O)cc1-c1nc(CC)c(CC)c(=O)[nH]1 [Example 215, 3-(3-(4,5-diethyl-1,6-dihydro-6-oxopyrimidin-2-yl)-4-n-propoxybenzamido)propylsulphonamide] | 0.88 |  |  | 
23 | CCCOc1ccc(NC(=O)CN2CCN(C)CC2)cc1-c1nc(CC)c(CC)c(=O)[nH]1 [Example 179, N-(3-(4,5-diethyl-1,6-dihydro-6-oxopyrimidin-2-yl)-4-n-propoxyphenyl)-2-(4-methylpiperazin-1-yl)acetamide] |  |  | 22.2 | 
